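Five compound concentrations were applied to cells in 96-well plates for 48 hours; endpoints were derived by simple linear interpolation of the resulting dose-response curve. Abbreviation: GI50, concentration required for 50% inhibition of growth.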 The source made the active and inactive calls. Rule as the data show it: active = GI50 up to about 1.1 µM and inactive = higher.
How the values were obtained:
Assay in all cases: NCI tumour cell line growth inhibition, 48 h
LOX IMVI = test system: LOX IMVI
RXF 393 = test system: RXF 393
UACC-62 = test system: UACC-62
SK-MEL-5 = test system: SK-MEL-5
SR = test system: SR
BT-549 = test system: BT-549
SK-OV-3 = test system: SK-OV-3
HT-29 = test system: HT-29
ACHN = test system: ACHN
OVCAR-8 = test system: OVCAR-8
T47D = test system: T47D
CCRF-CEM = test system: CCRF-CEM
SNB-75 = test system: SNB-75
MCF7 = test system: MCF7
SF-295 = test system: SF-295
SW-620 = test system: SW-620
K562 = test system: K562
IGROV-1 = test system: IGROV-1
CAKI-1 = test system: CAKI-1

SMILES	GI50 (LOX IMVI)	GI50 (RXF 393)	GI50 (UACC-62)	GI50 (SK-MEL-5)	GI50 (SR)	GI50 (BT-549)	GI50 (SK-OV-3)	GI50 (HT-29)	GI50 (ACHN)	GI50 (OVCAR-8)	GI50 (T47D)	GI50 (CCRF-CEM)	GI50 (SNB-75)	GI50 (MCF7)	GI50 (SF-295)	GI50 (SW-620)	GI50 (K562)	GI50 (IGROV-1)	GI50 (CAKI-1)
O=C(O)CCC(=O)c1ccc2sc3ccccc3c2c1	> 100 µM (inactive)	> 100 µM (inactive)	> 100 µM (inactive)	> 100 µM (inactive)	> 100 µM (inactive)	> 100 µM (inactive)	> 100 µM (inactive)	> 100 µM (inactive)	> 100 µM (inactive)	> 100 µM (inactive)	> 100 µM (inactive)	0.225 µM (active)	> 100 µM (inactive)	> 100 µM (inactive)	> 100 µM (inactive)	> 100 µM (inactive)	> 100 µM (inactive)	> 100 µM (inactive)	> 100 µM (inactive)
CC1(C)Oc2ccc(Cl)cc2C12CC2	16.6 µM (inactive)	15.6 µM (inactive)	40.5 µM (inactive)	18 µM (inactive)	18.1 µM (inactive)	21.1 µM (inactive)	21.7 µM (inactive)	17.6 µM (inactive)	16.3 µM (inactive)	14.7 µM (inactive)	22.6 µM (inactive)	22.7 µM (inactive)	16.8 µM (inactive)	16.9 µM (inactive)	14 µM (inactive)	11.8 µM (inactive)	15.5 µM (inactive)	14.7 µM (inactive)	15.6 µM (inactive)
COc1cc(S(=O)(=O)Nc2ccc(-c3csc(/N=C\c4ccccc4O)n3)cc2)ccc1Cl	35.5 µM (inactive)	35.6 µM (inactive)	31.6 µM (inactive)	70.5 µM (inactive)	31.6 µM (inactive)	43.7 µM (inactive)	> 100 µM (inactive)	> 100 µM (inactive)	62.2 µM (inactive)	> 100 µM (inactive)	16.9 µM (inactive)	22.3 µM (inactive)	55.2 µM (inactive)	22.6 µM (inactive)	31.5 µM (inactive)	37.8 µM (inactive)	28.2 µM (inactive)	56 µM (inactive)	> 100 µM (inactive)
O=C1Nc2ccccc2NC1C1OC(c2ccccc2)=CC1=O (stereo not given)	> 100 µM (inactive)	> 100 µM (inactive)	> 100 µM (inactive)	> 100 µM (inactive)	> 100 µM (inactive)	> 100 µM (inactive)	> 100 µM (inactive)	> 100 µM (inactive)	> 100 µM (inactive)	> 100 µM (inactive)	> 100 µM (inactive)	> 100 µM (inactive)	> 100 µM (inactive)	> 100 µM (inactive)	> 100 µM (inactive)	> 100 µM (inactive)	> 100 µM (inactive)	> 100 µM (inactive)	> 100 µM (inactive)
O=C1N[C@@H]2c3c(Br)sc(Br)c3C(=O)[C@@H]2N1	1.93 µM (inactive)	4.94 µM (inactive)	4.73 µM (inactive)	9.29 µM (inactive)	1.74 µM (inactive)	17 µM (inactive)	14.1 µM (inactive)	2.82 µM (inactive)	4.02 µM (inactive)	2.9 µM (inactive)	5.64 µM (inactive)	0.678 µM (active)	7.73 µM (inactive)	2.62 µM (inactive)	15.5 µM (inactive)	1.77 µM (inactive)	2.1 µM (inactive)	2.26 µM (inactive)	3.8 µM (inactive)
CNc1ncnc(Sc2nc(N)nc3[nH]cnc23)c1[N+](=O)[O-]	0.189 µM (active)	0.45 µM (active)	0.586 µM (active)	2.9 µM (inactive)	0.1 µM (active)	2.6 µM (inactive)	0.547 µM (active)	1.09 µM (active)	2.84 µM (inactive)	0.622 µM (active)	0.995 µM (active)	0.084 µM (active)	0.406 µM (active)	0.735 µM (active)	0.971 µM (active)	0.94 µM (active)	0.33 µM (active)	3.85 µM (inactive)	0.582 µM (active)
Cc1cc2ccccc2n1CC(=O)NCC(C)C	> 100 µM (inactive)	> 100 µM (inactive)	> 100 µM (inactive)	> 100 µM (inactive)	> 100 µM (inactive)	> 100 µM (inactive)	> 100 µM (inactive)	> 100 µM (inactive)	> 100 µM (inactive)	> 100 µM (inactive)	> 100 µM (inactive)	> 100 µM (inactive)	> 100 µM (inactive)	> 100 µM (inactive)	> 100 µM (inactive)	> 100 µM (inactive)	> 100 µM (inactive)	> 100 µM (inactive)	> 100 µM (inactive)
COc1cc2cc(C(=O)N3CC(CCl)c4c3cc(N)c3ccccc43)[nH]c2c(OC)c1OC (stereo not given)	< 0.01 µM (active)	< 0.01 µM (active)	< 0.01 µM (active)	< 0.01 µM (active)	< 0.01 µM (active)	< 0.01 µM (active)	< 0.01 µM (active)	< 0.01 µM (active)	< 0.01 µM (active)	< 0.01 µM (active)	< 0.01 µM (active)	< 0.01 µM (active)	< 0.01 µM (active)	< 0.01 µM (active)	< 0.01 µM (active)	< 0.01 µM (active)	< 0.01 µM (active)	< 0.01 µM (active)	< 0.01 µM (active)
Cc1ccc(-c2nc3cc(Cl)ccc3[nH]2)cc1	> 100 µM (inactive)	> 100 µM (inactive)	> 100 µM (inactive)	> 100 µM (inactive)	3.38 µM (inactive)	> 100 µM (inactive)	> 100 µM (inactive)	49 µM (inactive)	97.5 µM (inactive)	> 100 µM (inactive)	> 100 µM (inactive)	> 100 µM (inactive)	> 100 µM (inactive)	> 100 µM (inactive)	> 100 µM (inactive)	> 100 µM (inactive)	45.5 µM (inactive)	> 100 µM (inactive)	> 100 µM (inactive)
CCOC(=O)C1(C(=O)OCC)C[C@H]2CON=C2[C@@H]1c1ccc(C(F)(F)F)cc1	16.6 µM (inactive)	43.6 µM (inactive)	96.2 µM (inactive)	30.6 µM (inactive)	35.4 µM (inactive)	44.7 µM (inactive)	57.8 µM (inactive)	32 µM (inactive)	19.1 µM (inactive)	79.4 µM (inactive)	16.7 µM (inactive)	7.96 µM (inactive)	62.5 µM (inactive)	35.9 µM (inactive)	41.5 µM (inactive)	68.1 µM (inactive)	35.2 µM (inactive)	12.5 µM (inactive)	30.9 µM (inactive)
COc1cc(/N=N/c2cccc(S(N)(=O)=O)c2)c2ccccc2c1N	3.4 µM (inactive)	15.7 µM (inactive)	2.07 µM (inactive)	1.8 µM (inactive)	11.3 µM (inactive)	7.33 µM (inactive)	15.6 µM (inactive)	15.2 µM (inactive)	15.5 µM (inactive)	16.3 µM (inactive)	13.2 µM (inactive)	8.17 µM (inactive)	1.98 µM (inactive)	6.84 µM (inactive)	10.5 µM (inactive)	23.9 µM (inactive)	12.2 µM (inactive)	10.3 µM (inactive)	7.06 µM (inactive)
CCCC(=O)OC1CC(n2cc(F)c(=O)[nH]c2=O)OC1CO (stereo not given)	0.0149 µM (active)	> 5.79 µM (inactive)	0.0863 µM (active)	0.329 µM (active)	0.0493 µM (active)	0.726 µM (active)	4.08 µM (inactive)	1.29 µM (inactive)	0.0506 µM (active)	0.171 µM (active)	> 10 µM (inactive)	0.0355 µM (active)	1.53 µM (inactive)	0.036 µM (active)	0.148 µM (active)	> 10 µM (inactive)	1.74 µM (inactive)	> 5.89 µM (inactive)	0.141 µM (active)
C=C(C)CCC(=O)[C@](C)(O)[C@H]1[C@H](O)C[C@@]2(C)[C@@H]3CCc4c(cc(OC5OC(CO)C(O)C(O)C5O)c(O)c4C)C3(C)C(=O)C[C@]12C (stereo not given in full)	> 100 µM (inactive)	> 100 µM (inactive)	> 100 µM (inactive)	> 100 µM (inactive)	> 100 µM (inactive)	> 100 µM (inactive)	> 100 µM (inactive)	> 100 µM (inactive)	> 100 µM (inactive)	> 100 µM (inactive)	> 100 µM (inactive)	> 100 µM (inactive)	> 100 µM (inactive)	> 100 µM (inactive)	> 100 µM (inactive)	> 100 µM (inactive)	> 100 µM (inactive)	> 100 µM (inactive)	> 100 µM (inactive)
O=C1NNC2(C(=O)N1)c1ccccc1-c1ccccc12	> 10 µM (inactive)	> 10 µM (inactive)	> 10 µM (inactive)	> 10 µM (inactive)	> 10 µM (inactive)	> 10 µM (inactive)	> 10 µM (inactive)	> 10 µM (inactive)	> 10 µM (inactive)	> 10 µM (inactive)	2.55 µM (inactive)	> 10 µM (inactive)	> 10 µM (inactive)	> 10 µM (inactive)	> 10 µM (inactive)	> 10 µM (inactive)	> 10 µM (inactive)	> 10 µM (inactive)	> 10 µM (inactive)
COc1cc(N(CCC#N)CCC#N)ccc1C(=N/NC(=O)c1cc(Br)ccc1O)/N=N/c1ccccc1	25.8 µM (inactive)	26.4 µM (inactive)	20 µM (inactive)	20.1 µM (inactive)	16.9 µM (inactive)	20.8 µM (inactive)	31.1 µM (inactive)	24.9 µM (inactive)	28.2 µM (inactive)	28.4 µM (inactive)	24 µM (inactive)	8.45 µM (inactive)	27.7 µM (inactive)	18.9 µM (inactive)	31.6 µM (inactive)	31.6 µM (inactive)	19.4 µM (inactive)	13.8 µM (inactive)	27 µM (inactive)

Source: ChEMBL document CHEMBL1201862, “PubChem BioAssay data set” (2004)
